{"source": "patent US4622312A", "about": "“Growth hormone releasing factor analogs” (Hoffmann-La Roche Inc., priority 1984, dated 1986)", "key": {"[1]": {"tested_on": "rat pituitary cells in tissue culture", "test": "stimulation of growth hormone production in rat pituitary cells in tissue culture (RIA for rat growth hormone)", "assay_type": "cell-based", "procedure": "Biological activity of the synthetic GRF(1-44)NH2 was identical to the natural GRF(1-44)NH2 which was isolated from a human pancreatic tumor of an individual suffering from acromegaly (Salk Institute standard hGRF--NH2 (NL-A-10)). The assay for biological activity, which is based on the ability to stimulate production of growth hormone in rat pituitary cells in tissue culture, was performed in the following manner.\nPituitaries from 30-40 male Sprague-Dawley rats (175 g) were removed aseptically after decapitation. The anterior lobes were collected, washed 3 times in sterile Hepes buffer (0.025M) (pH 7.35) and dispersed at 37° C. in 20-30 ml Hepes buffer (pH 7.35) containing collagenase (4 mg per ml) and Dispase (Protease grade II, 2 mg per ml). After gentle 100-110-min. vortexing and trituration by Pasteur pipette, the dispersed cells were separated by centrifugation (150×g, 4 min) and re-suspended in Hepes buffer containing neuraminidase (8 μg/ml), and 200 µg/ml ethylenedinitrisotetraacetic acid (EDTA) disodium salt pH 7.35, for 10 min. The cells were washed twice with plating medium and plated on multiwell-plates (1.5×10^5 cells per ml) using the following defined medium: F-12/DMEM/(6:3:1) (Gibco: 430-1700/430-1600/320-2591) with 2 g BSA/l., 2.38 g Hepes/1.50 mg PSN antibiotic mixture (Gibco Laboratories). The medium in each well was supplemented either with a sample of the novel GRF peptide or natural GRF(1-44)--NH2 at concentrations ranging from 0.8 to 200 fmol. per ml. of medium. Control wells contained no supplement. Plating was done with this medium added with 2% fetal calf serum to ensure rapid fixation of the cells. On the fourth day the cells were washed twice with the defined medium without fetal calf serum. Finally 900 μl of defined medium was added to each well plus 100 μl of the same medium containing each individual treatment, in triplicate. After 4 hours of incubation the medium was collected and diluted as required to conduct radioimmunoassay (RIAs) for rat growth hormone. […]"}, "[2]": {"settings": "Rivier and Vale et al., Nature 300, 276-278 (1982); cited from earlier work"}}, "note": "No end group written: not given here.", "data": [{"compound": "CC[C@H](C)[C@H](NC(=O)[C@H](C)NC(=O)[C@H](CC(=O)O)NC(=O)[C@H](C)NC(=O)[C@@H](N)Cc1ccc(O)cc1)C(=O)N[C@@H](Cc1ccccc1)C(=O)N[C@H](C(=O)N[C@@H](CC(N)=O)C(=O)N[C@@H](CO)C(=O)N[C@@H](Cc1ccc(O)cc1)C(=O)N[C@@H](CCCNC(=N)N)C(=O)N[C@@H](CCCCN)C(=O)N[C@H](C(=O)N[C@@H](CC(C)C)C(=O)NCC(=O)N[C@@H](CCC(N)=O)C(=O)N[C@@H](CC(C)C)C(=O)N[C@@H](CO)C(=O)N[C@@H](C)C(=O)N[C@@H](CCCNC(=N)N)C(=O)N[C@@H](CCCCN)C(=O)N[C@@H](CC(C)C)C(=O)N[C@@H](CC(C)C)C(=O)N[C@@H](CCC(N)=O)C(=O)N[C@@H](CC(=O)O)C(=O)N[C@H](C(=O)N[C@@H](CCSC)C(=O)N[C@@H](CO)C(=O)N[C@@H](CCCNC(=N)N)C(=O)N[C@@H](CCC(N)=O)C(=O)N[C@@H](CCC(N)=O)C(=O)NCC(=O)N[C@@H](CCC(=O)O)C(=O)N[C@@H](CO)C(=O)N[C@@H](CC(N)=O)C(=O)N[C@@H](CCC(N)=O)C(=O)N[C@@H](CCC(=O)O)C(=O)N[C@@H](CCCNC(=N)N)C(=O)NCC(=O)N[C@@H](C)C(=O)N[C@@H](CCCNC(=N)N)C(=O)N[C@@H](C)C(=O)N[C@@H](CCCNC(=N)N)C(=O)N[C@@H](CC(C)C)C(N)=O)[C@@H](C)CC)C(C)C)[C@@H](C)O", "note": "[GRF(1-44)NH2]", "values": [{"measurement": "biological activity compared with natural GRF(1-44)NH2 (Salk Institute standard hGRF-NH2 (NL-A-10))", "setting": "[1]; synthetic versus natural peptide isolated from a human pancreatic tumor", "result": "identical"}]}, {"compound": "GRF(1-29)NH2", "values": [{"measurement": "intrinsic activity and potency in vitro", "setting": "[2]", "result": "full intrinsic activity and potency"}]}, {"compound": "YADAIFTNSYRKVLAQLSARKLLQDIMSR-NH2 [(Ala^15)-GRF(1-29)NH2, [Ala^15]-hGRF(1-29)-NH2]", "values": [{"measurement": "potency relative to GRF(1-29)NH2 (unsubstituted shortened GRF)", "setting": "[1]; growth hormone release, 4 hours of incubation", "result": 4.1, "unit": "times"}, {"measurement": "potency relative to GRF (1-44)NH2", "setting": "[1]; on a weight for weight basis, growth hormone release, 4 hours of incubation", "result": 5.1, "unit": "times"}]}]}
